These results are taken from US8399525B2, “Treatment of gaucher disease with specific pharmacological chaperones and monitoring treatment using surrogate markers” (Amicus Therapeutics, Inc., priority 2007, dated 2013).

The test system of series [1] is L444P transgenic mice. Nature of the series: Body and tissue weight measurements in L444P transgenic mice. The class given is in vivo. The method, then: (§1) Isofagomine treatment. Mice were administered isofagomine tartrate in their drinking water, ad libitum, at a concentration of 20 mg/kg.
(§2) Surrogate marker measurement. At the end of 4, 12, or 24 weeks, mice were sacrificed and evaluated for (i) enhancement of GCase enzyme activity in liver, spleen, lung and brain; (ii) chitotriosidase activity; (ii) body, spleen, and liver weight; and (iv) serum IgG, cholesterol, and liver enzyme levels. In addition, chaperone concentration in plasma and in the foregoing tissues will also be determined.
b. Body and tissue weight measurements: Animals were weighed prior to sacrifice after […]. Following sacrifice, spleen and liver were removed and weighed.

Series [2] has as its system chitotriosidase. Nature of the series: Plasma chitotriosidase activity in L444P transgenic mice. The class given is in vivo. The method, then:
as §1, §2
c. Chitotriosidase activity: Plasma is collected for the assay in 5 μl aliquots (in duplicate), and the remaining is stored at −80° C. 5 μl of plasma/EDTA is mixed with 100 μl 22 μM 4-MU-b-D-N,N′N″-triacetylchitotriose in citrate phosphate buffer (0.1M citrate and 0.2M phosphate buffer, pH5.2; made by mixing 185 ml 0.1 M citric acid and 200 ml 0.2 M sodium phosphate) in a 96 well black plate. 5 μl of EDTA/PBS (no plasma) is used as a negative control. A standard curve with standard serum is prepared by serial dilution in one row of the plate. The plate is then incubated for 15 minutes at 37° C. (floating in a hot water bath), and the reaction stopped by adding 150 μl 1M glycine, pH 10.8. The plate is read at F355/F460 in a Victor^2 1420 multilabel counter (Wallac).

Series [3] deals with IgG. Kind of series: IgG measurement (ELISA) in L444P transgenic mice. It counts as in vivo. The method, then: as §1, §2
d. IgG measurement: The mouse IgG ELISA quantitation kit (Bethyl Laboratories, Cat # E90-131) was used for determination of IgG concentration in plasma. 96-well plates were coated with 100 μl of the coating buffer (made by dissolving 1 capsule of coating antigen in 100 ml of double deionized water) and incubated for 1 hr at room temperature. The wells were then washed 3 times with 150 μl of wash buffer (50 mM Tris HCl (pH 8.0); 0.14 M NaCl; 0.05% Tween 20) followed by aspiration after each wash). […]
Following incubation, wells were washed 5 times with wash buffer to remove the unbound sample 100 μl of secondary antibody (1:20000 in diluent buffer) was added, followed by incubation again for 1 hour at RT. […] The reaction was stopped by adding 100 μl of 1M phosphoric acid, and the color intensity was measured at 450 nm in the plate reader. […]

A short description of series [4]: Cholesterol and liver enzyme measurement in L444P transgenic mice. It counts as in vivo. The settings on record: treated versus untreated at 4 or 12 weeks. The procedure: as §1, §2
e. Cholesterol and liver enzyme measurement. These were measured according to ordinary techniques.

For series [5], the target named is T1, N370S GCase (Homo sapiens, UniProt P04062, N409S).
T1 sequence (P04062 40-536 N409S): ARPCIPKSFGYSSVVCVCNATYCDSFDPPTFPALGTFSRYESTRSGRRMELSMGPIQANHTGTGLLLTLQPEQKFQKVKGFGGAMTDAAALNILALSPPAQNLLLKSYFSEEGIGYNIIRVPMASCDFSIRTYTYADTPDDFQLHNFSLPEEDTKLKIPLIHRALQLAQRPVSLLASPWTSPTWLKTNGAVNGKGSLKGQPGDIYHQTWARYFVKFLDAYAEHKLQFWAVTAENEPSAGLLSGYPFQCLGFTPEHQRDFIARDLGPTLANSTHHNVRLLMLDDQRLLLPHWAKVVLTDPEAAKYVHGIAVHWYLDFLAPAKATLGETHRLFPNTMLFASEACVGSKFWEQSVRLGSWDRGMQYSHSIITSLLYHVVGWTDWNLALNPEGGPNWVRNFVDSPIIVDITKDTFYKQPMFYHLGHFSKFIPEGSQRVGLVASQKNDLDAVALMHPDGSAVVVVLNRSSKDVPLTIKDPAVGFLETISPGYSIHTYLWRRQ
Kind of series: Pulse-chase experiments on N370S GCase. The settings on record: data not shown.

For the compound `OC[C@H]1CNC[C@@H](O)[C@@H]1O` [isofagomine, (3R,4R,5R)-5-(hydroxymethyl)-3,4-piperidinediol], the liver weight entry in series [1] (after 12 weeks) is listed as “did not significantly change”. The body weight entry in series [1] (after 12 weeks of treatment, wild-type about 40 g, untreated about 29 g) was “about 33 g”. For the same compound, the liver weight entry in series [1] (after 24 weeks) was “significant reduction”. In series [2] (after 4 weeks of treatment, versus untreated), the chitotriosidase levels entry is reported as “no difference”. The chitotriosidase levels result in series [2] (after 12 weeks, untreated >20,000, wild-type about 7500, p=0.1) is recorded as “about 17,000 μg of protein”. Besides, the “serum IgG levels” value in series [3] (by 2 weeks of treatment, persisted to 4 and 12 weeks, versus untreated) is listed as “significant decrease”. The IgG entry in series [3] (washout study, 10 mg/kg/day, after 4 weeks of treatment) is listed as “significantly decreased”. In series [4], the “alanine aminotransferase (ALT)” value was “no significant differences”, the “aspartate aminotransferase (AST)” value was “no significant differences” and the cholesterol entry was “no significant differences”. The “N370S GCase in the ER” value in series [5] is given as “increases N370S GCase in the ER”.
